Patent US9717752B2, “Uses of antagonists of hyaluronan signaling” (The United States of America, as represented by the …, priority 2012, dated 2017)
Entries after “also recorded” stand apart in the source; their conditions may differ.

Assays:
mice exposed to sHA = experiment: In vivo model of airway contraction (AHR) after sHA instillation, airway resistance to methacholine; details: 50 μl of 1-2 mg/ml by oropharyngeal aspiration, methacholine challenge 2 hours after sHA, compared to sHA with saline
Protocol: (§1) Measurements of respiratory mechanics were made by the forced oscillation technique. Response to aerosolized methacholine (0, 10 mg/ml, 25 mg/ml, and 100 mg/ml) was determined by resistance measurements every 30 seconds for 5 minutes, ensuring the parameters calculated had peaked. The resistance measurements were then averaged at each dose and graphed (RT, measured in cm H2O/ml/s) along with the initial baseline measurement.
(§2) In the following studies to evaluate the effect of heparosan, mice were exposed to one of several agents: sHA (50 μl of a 1 mg/ml sHA solution in PBS—sonicated Healon, AMO Inc., Santa Ana, Calif.); 1 ppm ozone (O3) for 4 hours; or inhaled OVA (sensitization with i.p. injection of 10 μg OVA (Sigma, St. Louis, Mo.), adsorbed to 2 mg of alum adjuvant (Pierce Biotechnology, Inc., Rockford, Ill.) diluted in saline on days 0 and 7, 60 minutes inhaled exposure to 1% OVA aerosol on days 14 and 15). Mice were phenotyped for AHR at typical time points for each of these exposures: 2 hours after sHA instillation; 24 hours after ozone exposure; and 48 hours after second OVA exposure. Thirty minutes prior to phenotyping, mice received appropriate treatment (saline, heparosan or heparin) by oropharyngeal aspiration. Mice received 50 μl of a 1-2 mg/ml solution of heparosan or heparin (or 50 μl of saline as a control). […]

mice exposed to ozone = experiment: Murine model of airway contraction after ozone exposure, airway resistance; type: in vivo; details: 1 ppm ozone for 4 hours, given 24 hours after exposure, 50 μl of 1-2 mg/ml by oropharyngeal aspiration, compared to saline placebo
Protocol: as §1, §2

[1] = test system: mice sensitized to ovalbumin and exposed to inhaled ovalbumin; experiment: Murine model of airway contraction in allergic asthma (ovalbumin), airway resistance; type: in vivo; details: given 48 hours after OVA exposure, 50 μl of 1-2 mg/ml by oropharyngeal aspiration, compared to saline placebo
Protocol: as §1, §2

[2] = test system: mice exposed to inhaled endotoxin (LPS); experiment: Murine model of inflammatory asthma (inhaled endotoxin/LPS), airway resistance; type: in vivo; details: for airway resistance after inhaled endotoxin (LPS) exposure: LPS+oHA, 50 μl of 1.5 mg/ml oHA by oropharyngeal aspiration after exposure
Protocol: as §1
In the following studies to evaluate the effect of oHA, mice were exposed to sHA (50 μl of a 1 mg/ml sHA solution in PBS—sonicated Healon, AMO Inc., Santa Ana, Calif.) or inhaled endotoxin (5 μg/m^3) over 2.5 hours. Mice were phenotyped for AHR at typical time points for each of these exposures: 2 hours after sHA instillation; or 4 hours after endotoxin exposure. Thirty minutes prior to phenotyping, mice received appropriate treatment (saline, vehicle or oHA) by oropharyngeal aspiration. Mice were treated with 50 μl of 1.5 mg/ml oHA. Phenotyping was with invasive airway pressure measurements (FlexiVent™).

mouse tracheal rings = experiment: Tracheal ring assay, in vitro model of mouse airway smooth muscle cell contractility; type: cell-based; details: for effect on sHA-exaggerated contractile response of tracheal rings to carbachol: 1 mg/mL sHA+0.5 mg/mL oHA
Protocol: Airway smooth muscle reactivity was assessed in temperature-controlled (37° C.) organ baths containing Krebs-Henseleit buffer solution of the following composition: 118 mM NaCl, 4.7 mM KCl, 2.5 mM CaCl2, 1.2 mM MgSO4, 25 mM NaHCO3, 1.2 mM KH2PO4, and 11.1 mM glucose, continuously bubbled with 5% CO2 and 95% O2. Tracheal segments were mounted in organ baths between two metal hooks and connected to a K30 force displacement transducer under approximately 5-mN resting tension. Isometric contractile responses were recorded after dosing with carbachol (a bronchial constrictor) and isoproterenol (a bronchial dilator).

[3] = test system: human airway smooth muscle cells (ASMC); experiment: Gel contraction: human airway smooth muscle cells in 3-dimensional collagen-hyaluronan gels; type: cell-based
Protocol: The in vitro effect of heparosan on human airway smooth muscle cells (ASMC) was tested in 3-dimensional, collagen-hyaluronan gels. Collagen-only gels were used as controls. Human ASMC (6×10^5 cells/ml) in basal media were seeded into the gel solution and incubated up to 36 hours at 37° C. in 5% CO2. Gels were scanned at varying time intervals to monitor gel contraction. After 24 hours, the gels were fixed with 4% paraformaldehyde and stained with phalloidin and DAPI. In some experiments, the ROCK inhibitor Y-27632 was added to the gel. Change in gel area was measured by NIH Image J software.

Substance: heparin [reference compound]
- airway resistance after sHA exposure (mice exposed to sHA): increased the development of airway resistance
- airway resistance after ozone exposure (mice exposed to ozone): had no effect on airway resistance beyond saline
- airway resistance in ovalbumin allergic asthma model [1]: increased the development of airway resistance

Substance: heparosan
- airway resistance after sHA exposure (mice exposed to sHA): decreased the development of airway resistance
- airway resistance after ozone exposure (mice exposed to ozone): led to decreased airway resistance compared to saline placebo treatment
- airway resistance after inhaled endotoxin (LPS) exposure [2]: inhibits inflammatory AHR
- effect on sHA-exaggerated contractile response of tracheal rings to carbachol (mouse tracheal rings): ameliorates tracheal ring contractility
- airway resistance in ovalbumin allergic asthma model [1]: led to decreased airway resistance compared to saline placebo treatment
- effect on sHA-induced contraction of gel containing human ASMC ([3]; collagen-hyaluronan gel, change in gel area): inhibited this action, and was indistinguishable from control cells

Substance: hyaluronan oligosaccharide [oHA]
- airway resistance after inhaled endotoxin (LPS) exposure [2]: led to decreased airway resistance
- airway contractility without LPS exposure ([2]; saline+oHA (oHA alone)): had no effect on airway contractility
- effect on sHA-exaggerated contractile response of tracheal rings to carbachol (mouse tracheal rings): inhibited this action

Substance: short fragment hyaluronan [sHA, reference compound]
- contractile response of tracheal rings to carbachol (mouse tracheal rings; 1 mg/mL sHA versus 0 mg/mL sHA): led to an exaggerated contractile response of mouse tracheal rings to the constrictor substance carbachol
- contraction of gel containing human ASMC ([3]; sHA alone, versus collagen-only control gels): led to rapid contraction of a gel containing human ASMC; also recorded: led to rapid contraction of a gel containing haSMC
